Results published in the NIST ThermoML archive (doi:10.1016/j.jct.2016.03.028).

Key:
[1] = xn = mol fraction of the nth substance listed; conditions: Liquid; for speed of sound: 100 kPa, Frequency=3 MHz, Sing-around technique in a fixed-path interferometer; for mass density: 101.3 kPa, Vibrating tube method
[2] = refractive index (Na D-line) (dimensionless); xn = mol fraction of the nth substance listed; conditions: 100 kPa, Liquid, Standard Abbe refractometry

CCCOCCO [2-propoxyethanol] + CCOS(=O)(=O)[O-].CCn1cc[n+](C)c1
Conditions | mass density, [1] [kg/m3] | refractive index, [2] | speed of sound, [1] [m/s]
298.15 K, x2 = 0 | 908.31 | 1.41255 | 1299.9
298.15 K, x2 = 0.0496 | 936.15 | 1.41807 | 1322.2
298.15 K, x2 = 0.0901 | 957.3 | 1.42234 | 1339.6
298.15 K, x2 = 0.1345 | 979.08 | 1.42679 | 1358
298.15 K, x2 = 0.1738 | 997.17 | 1.43052 | 1374
298.15 K, x2 = 0.2568 | 1032.34 | 1.43781 | 1407.7
298.15 K, x2 = 0.3477 | 1066.65 | 1.44491 | 1444.5
298.15 K, x2 = 0.4406 | 1097.96 | 1.45131 | 1482.1
298.15 K, x2 = 0.5477 | 1130.29 | 1.45778 | 1525.4
298.15 K, x2 = 0.6478 | 1157.57 | 1.46309 | 1565.2
298.15 K, x2 = 0.7729 | 1188.39 | 1.46902 | 1612.3
298.15 K, x2 = 0.8263 | 1200.6 | 1.4714 | 1630.9
298.15 K, x2 = 0.8757 | 1211.4 | 1.47357 | 1647
298.15 K, x2 = 0.9346 | 1223.63 | 1.47615 | 1664.4
308.15 K, x2 = 0 | 899.5 | 1.40814 | 1265
308.15 K, x2 = 0.0496 | 927.63 | 1.41391 | 1288.6
308.15 K, x2 = 0.0901 | 948.98 | 1.41835 | 1306.8
308.15 K, x2 = 0.1345 | 970.94 | 1.42296 | 1326.1
308.15 K, x2 = 0.1738 | 989.17 | 1.42682 | 1342.8
308.15 K, x2 = 0.2568 | 1024.6 | 1.43433 | 1377.8
308.15 K, x2 = 0.3477 | 1059.1 | 1.44162 | 1415.6
308.15 K, x2 = 0.4406 | 1090.57 | 1.44817 | 1454.2
308.15 K, x2 = 0.5477 | 1123.06 | 1.45477 | 1498.4
308.15 K, x2 = 0.6478 | 1150.45 | 1.4602 | 1539
308.15 K, x2 = 0.7729 | 1181.41 | 1.46625 | 1587
308.15 K, x2 = 0.8263 | 1193.67 | 1.46868 | 1606
308.15 K, x2 = 0.8757 | 1204.51 | 1.47089 | 1622.3
308.15 K, x2 = 0.9346 | 1216.76 | 1.4735 | 1639.9
318.15 K, x2 = 0 | 890.56 | 1.40355 | 1230.1
318.15 K, x2 = 0.0496 | 919 | 1.40953 | 1254.9
318.15 K, x2 = 0.0901 | 940.58 | 1.41413 | 1274
318.15 K, x2 = 0.1345 | 962.75 | 1.41891 | 1294.2
318.15 K, x2 = 0.1738 | 981.14 | 1.4229 | 1311.6
318.15 K, x2 = 0.2568 | 1016.84 | 1.43065 | 1347.8
318.15 K, x2 = 0.3477 | 1051.57 | 1.43817 | 1386.9
318.15 K, x2 = 0.4406 | 1083.21 | 1.44492 | 1426.5
318.15 K, x2 = 0.5477 | 1115.85 | 1.45172 | 1471.8
318.15 K, x2 = 0.6478 | 1143.37 | 1.45729 | 1513.2
318.15 K, x2 = 0.7729 | 1174.46 | 1.46348 | 1562
318.15 K, x2 = 0.8263 | 1186.78 | 1.46595 | 1581.3
318.15 K, x2 = 0.8757 | 1197.67 | 1.46818 | 1597.9
318.15 K, x2 = 0.9346 | 1209.98 | 1.47081 | 1615.7
328.15 K, x2 = 0 | 881.49 | 1.39908 | 1195.8
328.15 K, x2 = 0.0496 | 910.28 | 1.4053 | 1221.5
328.15 K, x2 = 0.0901 | 932.1 | 1.41007 | 1241.4
328.15 K, x2 = 0.1345 | 954.51 | 1.41501 | 1262.4
328.15 K, x2 = 0.1738 | 973.08 | 1.41912 | 1280.5
328.15 K, x2 = 0.2568 | 1009.08 | 1.42711 | 1318.1
328.15 K, x2 = 0.3477 | 1044.05 | 1.43483 | 1358.5
328.15 K, x2 = 0.4406 | 1075.88 | 1.44175 | 1399.3
328.15 K, x2 = 0.5477 | 1108.69 | 1.4487 | 1445.6
328.15 K, x2 = 0.6478 | 1136.34 | 1.45439 | 1487.8
328.15 K, x2 = 0.7729 | 1167.58 | 1.46071 | 1537.5
328.15 K, x2 = 0.8263 | 1179.94 | 1.46322 | 1557
328.15 K, x2 = 0.8757 | 1190.88 | 1.46549 | 1573.9
328.15 K, x2 = 0.9346 | 1203.26 | 1.46815 | 1591.9
